# What was measured:
# Water solubility = format: physicochemical; conditions: for solubility: read-out: H2O Sol. % (g per 100 ml H2O)
# L1210 leukemia [1] = assay: IP implanted L1210 leukemia in mice (CD2F1); format: in vivo
# L1210 leukemia [2] = assay: S.C. implanted L1210 leukemia in mice (CD2F1); format: in vivo
# Description: ^a Experimental formulation of mitindomide was used (NaOH + manitol).
# P388 = assay: IP P388, Days 1-9 (NCI murine test system); format: in vivo; conditions: IP P388, Days 1-9, dose 400
# Experimental: Anti-tumor or anti-neoplastic activity of the novel derivatives of the present invention is determined by using the murine test system for screening anti-cancer compounds as standardized by the National Cancer Institute, Bethesda, Md., U.S.A., and described in Cancer Chemotherapy Reports, 3 (2) 1-103 (1972) which publication is incorporated herein by reference.
# It is noted that although the intraperitoneal mode of administration of the novel derivatives is preferred, other modes of parenteral administration, e.g. subcutaneous, intravenous, etc., are, of course, possible and included within the purview of this invention. Similarly, although water has been used as a vehicle for the administration of the compounds of the present invention, other pharmaceutically acceptable vehicles, e.g. saline, buffers, and other aqueous media may also be used for the administration of these compounds together with adjuvants, agents or additives commonly employed in the preparation of pharmaceutical compositions. Examples of such agents, additives and adjuvants that may be employed are listed in Instruction 14, Screening Data Summary Interpretation and Outline of Clinical Screen. Drug Evaluation Branch, NCI. and are incorporated herein by reference.
# [3] = 21.6 mg/kg IP days 1-9, Expt. 1
# [4] = 21.6 mg/kg IP days 1-9, Expt. 2
# [5] = 21.6 mg/kg IP days 1-9, Expt. 3
# [6] = 166.7 mg/kg IP days 1-9, Expt. 1
# [7] = 166.7 mg/kg IP days 1-9, Expt. 3
# [8] = 21.6 mg/kg ip days 1-9, Expt. 1
# [9] = 21.6 mg/kg ip days 1-9, Expt. 2
# [10] = 36.0 mg/kg ip days 1-9, Expt. 1
# [11] = 36.0 mg/kg ip days 1-9, Expt. 2
# [12] = 60.0 mg/kg ip days 1-9, Expt. 1
# [13] = 60.0 mg/kg ip days 1-9, Expt. 2
# [14] = 100.0 mg/kg ip days 1-9, Expt. 1
# [15] = 100.0 mg/kg ip days 1-9, Expt. 2
# [16] = 166.7 mg/kg ip days 1-9, Expt. 2
compound,measurement,setting,value
"O=C1C2C3C=CC(C2C(=O)N1CO)C1C2C(=O)N(CO)C(=O)C2C31 (centres unmarked) [Example 2, 4,8-Ethenopyrrolo[3',4':3,4]cyclobut[1,2-f]isoindole-1,3,5,7(2H,6H)-tetrone,3a,3b,4,4a,7a,8,8a,8b-octahydro-2-,6-bis(hydroxymethyl)-]",solubility,Water solubility; water,8000 µg/mL
"CN1CCN(CN2C(=O)C3C4C=CC(C3C2=O)C2C3C(=O)N(CN5CCN(C)CC5)C(=O)C3C42)CC1 (centres unmarked) [Example 3, 4,8-Ethenopyrrolo[3'4':3,4]cyclobut[1,2-f]isoindole-1,3,5,7(2H,6H)-tetrone,3a,3b,4,4a,7a,8,8a,8b-octahydro-2,6-bis(N-methylpiperazinomethyl)]",ILS,L1210 leukemia [1]; [3],4%
same,MST,L1210 leukemia [1]; [3],9.1 days
same,Wt. Change,L1210 leukemia [1]; [3],1.9 g
same,ILS,L1210 leukemia [1]; [4],3%
same,MST,L1210 leukemia [1]; [4],8.3 days
same,Wt. Change,L1210 leukemia [1]; [4],0.7 g
same,ILS,L1210 leukemia [1]; [5],9%
same,MST,L1210 leukemia [1]; [5],9.0 days
same,Wt. Change,L1210 leukemia [1]; [5],0.2 g
same,ILS,"L1210 leukemia [1]; 36 mg/kg IP days 1-9, Expt. 1",5%
same,MST,"L1210 leukemia [1]; 36 mg/kg IP days 1-9, Expt. 1",9.2 days
same,Wt. Change,"L1210 leukemia [1]; 36 mg/kg IP days 1-9, Expt. 1",1.7 g
same,ILS,"L1210 leukemia [1]; 36 mg/kg IP days 1-9, Expt. 2",12%
same,MST,"L1210 leukemia [1]; 36 mg/kg IP days 1-9, Expt. 2",9.0 days
same,Wt. Change,"L1210 leukemia [1]; 36 mg/kg IP days 1-9, Expt. 2",-0.5 g
same,ILS,"L1210 leukemia [1]; 36 mg/kg IP days 1-9, Expt. 3",9%
same,MST,"L1210 leukemia [1]; 36 mg/kg IP days 1-9, Expt. 3",9.0 days
same,Wt. Change,"L1210 leukemia [1]; 36 mg/kg IP days 1-9, Expt. 3",0.2 g
same,ILS,"L1210 leukemia [1]; 60 mg/kg IP days 1-9, Expt. 1",37%
same,MST,"L1210 leukemia [1]; 60 mg/kg IP days 1-9, Expt. 1",12.0 days
same,Wt. Change,"L1210 leukemia [1]; 60 mg/kg IP days 1-9, Expt. 1",-0.4 g
same,ILS,"L1210 leukemia [1]; 60 mg/kg IP days 1-9, Expt. 2",75%
same,MST,"L1210 leukemia [1]; 60 mg/kg IP days 1-9, Expt. 2",14.0 days
same,Wt. Change,"L1210 leukemia [1]; 60 mg/kg IP days 1-9, Expt. 2",-4.4 g
same,ILS,"L1210 leukemia [1]; 60 mg/kg IP days 1-9, Expt. 3",46%
same,MST,"L1210 leukemia [1]; 60 mg/kg IP days 1-9, Expt. 3",12.0 days
same,Wt. Change,"L1210 leukemia [1]; 60 mg/kg IP days 1-9, Expt. 3",-1.3 g
same,ILS,"L1210 leukemia [1]; 100 mg/kg IP days 1-9, Expt. 1",37%
same,MST,"L1210 leukemia [1]; 100 mg/kg IP days 1-9, Expt. 1",12.0 days
same,Wt. Change,"L1210 leukemia [1]; 100 mg/kg IP days 1-9, Expt. 1",-2.9 g
same,ILS,"L1210 leukemia [1]; 100 mg/kg IP days 1-9, Expt. 2",141%
same,MST,"L1210 leukemia [1]; 100 mg/kg IP days 1-9, Expt. 2",19.3 days
same,Wt. Change,"L1210 leukemia [1]; 100 mg/kg IP days 1-9, Expt. 2",-4.8 g
same,ILS,"L1210 leukemia [1]; 100 mg/kg IP days 1-9, Expt. 3",95%
same,MST,"L1210 leukemia [1]; 100 mg/kg IP days 1-9, Expt. 3",16.0 days
same,Wt. Change,"L1210 leukemia [1]; 100 mg/kg IP days 1-9, Expt. 3",-3.1 g
same,MST,L1210 leukemia [1]; [6],6.3 days
same,Wt. Change,L1210 leukemia [1]; [6],-5.2 g
same,ILS,L1210 leukemia [1]; [7],156%
same,MST,L1210 leukemia [1]; [7],21.0 days
same,Wt. Change,L1210 leukemia [1]; [7],-5.2 g
same,solubility of dosed preparation,"L1210 leukemia [1]; Table 4 Expt. 1, vehicle water, 60 mg/kg and higher",insoluble
same,ILS,L1210 leukemia [2]; [8],6%
same,MST,L1210 leukemia [2]; [8],8.7 days
same,Wt. Change,L1210 leukemia [2]; [8],-0.3 g
same,ILS,L1210 leukemia [2]; [9],10%
same,MST,L1210 leukemia [2]; [9],11.8 days
same,Wt. Change,L1210 leukemia [2]; [9],0.2 g
same,ILS,L1210 leukemia [2]; [10],13%
same,MST,L1210 leukemia [2]; [10],9.3 days
same,Wt. Change,L1210 leukemia [2]; [10],-1.0 g
same,ILS,L1210 leukemia [2]; [11],5%
same,MST,L1210 leukemia [2]; [11],11.3 days
same,Wt. Change,L1210 leukemia [2]; [11],-0.4 g
same,ILS,L1210 leukemia [2]; [12],70%
same,MST,L1210 leukemia [2]; [12],14.0 days
same,Wt. Change,L1210 leukemia [2]; [12],-4.2 g
same,ILS,L1210 leukemia [2]; [13],14%
same,MST,L1210 leukemia [2]; [13],12.3 days
same,Wt. Change,L1210 leukemia [2]; [13],-0.7 g
same,ILS,L1210 leukemia [2]; [14],143%
same,MST,L1210 leukemia [2]; [14],20.0 days
same,Wt. Change,L1210 leukemia [2]; [14],-5.3 g
same,ILS,L1210 leukemia [2]; [15],72%
same,MST,L1210 leukemia [2]; [15],18.5 days
same,Wt. Change,L1210 leukemia [2]; [15],-3.1 g
same,ILS,L1210 leukemia [2]; [16],133%
same,MST,L1210 leukemia [2]; [16],25.0 days
same,Wt. Change,L1210 leukemia [2]; [16],-4.9 g
same,H2O Sol. % (g per 100 ml H2O),Water solubility; water,1.5 % (g per 100 ml H2O)
"O=C1C2C3C=CC(C2C(=O)N1CN1CCOCC1)C1C2C(=O)N(CN4CCOCC4)C(=O)C2C31 (centres unmarked) [Example 5, 4,8-Ethenopyrro[3',4':3,4]cyclobut[1,2-f]isoindole-1,3,5,7(2H,6H)-tetrone,3a,3b,4,4a,7a,8,8a,8b-octahydro-2,6-bis(morpholinomethyl)]",solubility,Water solubility; water,1000 µg/mL
"O=C1C2C3C=CC(C2C(=O)N1CN1CCSCC1)C1C2C(=O)N(CN4CCSCC4)C(=O)C2C31 (centres unmarked) [Example 6, 4,8-Ethenopyrrolo[3'4':3,4]cyclobut[1,2-f]isoindole-1,3,5,7(2H,6H)-tetrone,3a,3b,4,4a,7a,8,8a,8-octahydro-2,6-bis(thiomorpholinomethyl)]",solubility,Water solubility; water,1000 µg/mL
"CCN(CC)CN1C(=O)C2C3C=CC(C2C1=O)C1C2C(=O)N(CN(CC)CC)C(=O)C2C31 (centres unmarked) [Example 7, 4,8-Ethenopyrrolo[3',4':3,4]cyclobut[1,2-f]isoindole-1,3,5,7(2H,6H)-tetrone,3a,3b,4,4a,7a,8,8a,8b-octahydro-2,6-bis(N,N-diethylaminomethyl)]",solubility,Water solubility; water,1000 µg/mL
"CC(=O)OCN1C(=O)C2C3C=CC(C2C1=O)C1C2C(=O)N(COC(C)=O)C(=O)C2C31 (centres unmarked) [Example 8, 4,8-Ethenopyrrolo3',4':3,4cyclobut[1,2-f]isoindole-1,3,5,7(2H,6H)-tetrone,3a,3b,4,4a,7a,8a,8b-octahydro-2,6-bis(acetyloxymethyl)]",T/C,P388,208
same,fraction printed in brackets behind T/C (not explained),P388,1/5
same,solubility,Water solubility; water,1000 µg/mL
"NCC(=O)OCN1C(=O)C2C3C=CC(C2C1=O)C1C2C(=O)N(COC(=O)CN)C(=O)C2C31 (centres unmarked) [Example 9, 4,8-Ethenopyrrolo[3',4':3,4]cyclobut[1,2-f]isoindole-1,3,5,7(2H,6H)-tetrone,3a,3b,4,4a,7a,8,8a,8b-octahydro-2-,6bis(2-aminoacetyloxymethyl)]",solubility,Water solubility; water,20000 µg/mL
"O=C(O)CCC(=O)OCN1C(=O)C2C3C=CC(C2C1=O)C1C2C(=O)N(COC(=O)CCC(=O)O)C(=O)C2C31 (centres unmarked) [Example 10, 4,8-Ethenopyrrolo[3',4':3,4]cyclobut[1,2-f]isoindole-1,3,5,7(2H,6H)-tetrone,3a,3b,4,4a,7a,8,8a,8b-octahydro-2-,6-bis(succinyloxymethyl)]",solubility in water,Water solubility; freeze-dried powder after pH adjusted to 6.33 with sodium bicarbonate,readily soluble in water
same,solubility in water,"Water solubility; title compound, 2.4 g mixed with 150 ml of water",not soluble
same,solubility,Water solubility; water,20000 µg/mL
CC(=O)OC(C(=O)O)N1C(=O)C2C3C=CC(C2C1=O)C1C2C(=O)N(C(OC(C)=O)C(=O)O)C(=O)C2C31 (centres unmarked) [Example 11],solubility in water,Water solubility; freeze-dried solid after pH adjusted to 6.11 with sodium bicarbonate,soluble in water
same,solubility,Water solubility; water,50000 µg/mL

# Source: US4670461A, “Formaldehyde derivatives of mitindomide” (priority 1984, dated 1987)
